Source: US20240400564A1 (Syndax Pharmaceuticals, Inc, priority 2021, published 2024)

Assays:
[1] = test system: MLLr leukemia cell line MV4-11; assay: Cell proliferation assay MV4;11 (CellTiter-Glo, 72 hours); format: cell-based; details: Homo sapiens; MV4-11 cells, 72 hours, CellTiter-Glo; read-out: MV4; 11 IC50
Method in brief: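 Cells in IMDM/10% FBS, seeded from a 15,000 cells/ml suspension, were exposed for 72 h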

Menin-MLL = target: T1, Menin-MLL (Homo sapiens, UniProt O00255); assay: Determination of binding constants to Menin-MLL (HTRF, EC50 and Ki); details: 0.25 nM H-FL-Menin, 3.2 nM FITC-MLL-4-43, 24 hr incubation
T1 sequence (O00255 1-610): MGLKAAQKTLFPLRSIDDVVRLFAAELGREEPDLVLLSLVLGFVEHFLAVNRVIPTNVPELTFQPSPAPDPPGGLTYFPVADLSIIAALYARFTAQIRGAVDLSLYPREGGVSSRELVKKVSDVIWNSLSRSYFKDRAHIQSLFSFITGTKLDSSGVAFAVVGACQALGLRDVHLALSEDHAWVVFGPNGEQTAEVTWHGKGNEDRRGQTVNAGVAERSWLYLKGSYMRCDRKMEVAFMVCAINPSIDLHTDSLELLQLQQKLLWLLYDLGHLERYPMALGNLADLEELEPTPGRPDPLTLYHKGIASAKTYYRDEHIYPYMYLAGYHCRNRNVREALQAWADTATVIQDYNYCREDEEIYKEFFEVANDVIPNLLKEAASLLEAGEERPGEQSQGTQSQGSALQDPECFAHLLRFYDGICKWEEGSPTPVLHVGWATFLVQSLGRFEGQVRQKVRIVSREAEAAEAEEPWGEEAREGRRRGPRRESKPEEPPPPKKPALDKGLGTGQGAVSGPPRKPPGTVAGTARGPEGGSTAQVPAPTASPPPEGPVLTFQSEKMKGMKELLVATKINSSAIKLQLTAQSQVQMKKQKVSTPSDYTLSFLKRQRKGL

[2] = target: T2, human Menin and N-terminal portion of human MLL (amino acids 4-43) (Homo sapiens, UniProt O00255); assay: Menin-MLL competition assay (HTRF); format: binding; details: 1 hr incubation
T2 construct: H-FL-Menin diluted to 4 nM in assay buffer
T2 sequence (O00255 1-610): T1 sequence (O00255 1-610)
Method in brief: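 HTRF competition: 1 nM His-tagged full-length Menin with 2 nM Tb-anti-His6 and 1 nM FITC-MLL(4-43), 1 h at room temperature in Tris pH 7.4 buffer with DTT, BSA, Triton X-100; 3.16-fold compound series, 2% DMSO. Ratio 520/485 normalized to DMSO and 1 μM reference-compound controls for IC50.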

SMILES	IC50 [1]	IC50 [2]	other results
CCS(=N)(=O)N[C@@H]1CC[C@@H](CN2CCC3(CC2)CN(c2ncncc2Oc2ccc(F)cc2C(=O)N(C(C)C)C(C)C)C3)OC1 (mixture of isomers) [Example 225, 2-((4-(7-(((2S,5R)-5-(Ethylsulfonoamidimidamido)tetrahydro-2H-pyran-2-yl)methyl)-2,7-diazaspiro[3.5]nonan-2-yl)pyrimidin-5-yl)oxy)-5-fluoro-N,N-diisopropylbenzamide]	0.1 to 1 µM	–	Ki (Menin-MLL): < 0.001 µM
CC(C)N(C(=O)c1cc(F)ccc1Oc1cncnc1N1CC2(CCN(C[C@@H]3CC[C@@H](NS(C)(=O)=O)CO3)CC2)C1)C1CC1 [Example 18, N-Cyclopropyl-5-fluoro-N-isopropyl-2-((4-(7-(((2S,5R)-5-(methylsulfonamido)tetrahydro-2H-pyran-2-yl)methyl)-2,7-diazaspiro[3.5]nonan-2-yl)pyrimidin-5-yl)oxy)benzamide]	< 0.1 µM	< 0.1 µM	–
CCS(=O)(=O)N[C@@H]1CC[C@@H](CN2CCC3(CC2)CN(c2ncncc2Oc2ccc(F)cc2C(=O)N(C(C)C)[C@H]2C[C@@H](O)C2)C3)OC1 [Example 50, 2-((4-(7-(((2S,5R)-5-(Ethylsulfonamido)tetrahydro-2H-pyran-2-yl)methyl)-2,7-diazaspiro[3.5]nonan-2-yl)pyrimidin-5-yl)oxy)-5-fluoro-N-((1s,3s)-3-hydroxycyclobutyl)-N-isopropylbenzamide]	< 0.1 µM	< 0.1 µM	–
CCN(C(=O)c1cc(F)ccc1Oc1cncnc1N1CC2(CCN(C[C@@H]3CC[C@@H](NS(=O)(=O)C4CCOC4)CO3)CC2)C1)C(C)C (stereo partly drawn) [Example 10, N-Ethyl-5-fluoro-N-isopropyl-2-((4-(7-(((2S,5R)-5-((tetrahydrofuran)-3-sulfonamido)tetrahydro-2H-pyran-2-yl)methyl)-2,7-diazaspiro[3.5]nonan-2-yl)pyrimidin-5-yl)oxy)benzamide]	< 0.1 µM	< 0.1 µM	–
CCN(C(=O)c1cc(F)ccc1Oc1cncnc1N1CC2(CCN(C[C@H]3CC[C@H](NS(=O)(=O)CC)CO3)CC2)C1)C(C)C [Example 52, N-Ethyl-2-((4-(7-(((2R,5S)-5-(ethylsulfonamido)tetrahydro-2H-pyran-2-yl)methyl)-2,7-diazaspiro[3.5]nonan-2-yl)pyrimidin-5-yl)oxy)-5-fluoro-N-isopropylbenzamide]	–	–	EC50 (Menin-MLL): ≤ 0.05 µM
CC(C)N(C(=O)c1cc(F)ccc1Oc1cncnc1N1CC2(CCN(C[C@@H]3CC[C@@H](NS(=O)(=O)C(C)C)CO3)CC2)C1)[C@@H]1CCOC1 [Example 132, 5-Fluoro-N-isopropyl-2-((4-(7-(((2S,5R)-5-((1-methylethyl)sulfonamido)tetrahydro-2H-pyran-2-yl)methyl)-2,7-diazaspiro[3.5]nonan-2-yl)pyrimidin-5-yl)oxy)-N-((R)-tetrahydrofuran-3-yl)benzamide]	–	–	EC50 (Menin-MLL): 0.111 µM
CCN(C(=O)c1cc(F)ccc1Oc1cncnc1N1CC2(CCN(C[C@@H]3CC[C@@H](NC(=O)Nc4ccccc4)CO3)CC2)C1)C(C)C [Example 215, N-Ethyl-5-fluoro-N-isopropyl-2-((4-(7-(((2S,5R)-5-(3-phenylureido)tetrahydro-2H-pyran-2-yl)methyl)-2,7-diazaspiro[3.5]nonan-2-yl)pyrimidin-5-yl)oxy)benzamide]	–	–	Menin-MLL Ki HTRF Assay: EC50 (nM) (Menin-MLL): ++ (250 nM and <100 nM)
CCS(=O)(=O)N[C@@H]1CC[C@@H](CN2CCC3(CC2)CN(c2ncncc2Oc2ccc(F)cc2C(=O)N(C(C)C)[C@H]2C[C@@H](C(F)F)C2)C3)OC1 [Example 245, N-((1s,3s)-3-(difluoromethyl)cyclobutyl)-2-((4-(7-(((2S,5R)-5-(ethylsulfonamido)tetrahydro-2H-pyran-2-yl)methyl)-2,7-diazaspiro[3.5]nonan-2-yl)pyrimidin-5-yl)oxy)-5-fluoro-N-isopropylbenzamide]	< 0.1 µM	–	Ki (Menin-MLL): < 0.001 µM
